Reference: patent publication US7977346B2, “Spiro compounds and methods of use” (priority 2006, dated 2011)

Columns and labels:
[1] = tested on: colon LOVO cell line; test: MTT assay against colon LOVO cell line; assay type: cell-based, human
Text: (§1) The following in vitro results are activities of some compounds in present invention against human tumor NSCLC A549 cell line and colon LOVO cell line in MTT assay.

[2] = tested on: human tumor NSCLC A549 cell line; test: MTT assay against human tumor NSCLC A549 cell line; assay type: cell-based
Text: as §1

| Compound | IC50 [1] [nM] | IC50 [2] [nM] |
| --- | --- | --- |
| COc1cc2ncnc(Nc3ccc(F)c(Cl)c3)c2cc1OCCCN1CC2(CC2)C2(C1)OCCO2 [Example 20, N-(3-chloro-4-fluorophenyl)-7-methoxy-6-[3-(5,8-Dioxa-10-azadispiro[2.0.4.3]undecane)propoxy]quinazolin-4-amine] | 0.0375 | 0.0619 |
| COc1cc2ncnc(Nc3ccc(F)c(Cl)c3)c2cc1OCCCN1CC(=O)C2(CC2)C1 [Example 22, N-(3-chloro-4-fluorophenyl)-7-methoxy-6-[3-(5-azaspiro[2.4]heptan-7-one)propoxy]quinazolin-4-amine] | 0.0329 | 0.0359 |
| COc1cc2ncnc(Nc3ccc(F)c(Cl)c3)c2cc1OCCN1CC(=O)C2(CC2)C1 [Example 23, N-(3-chloro-4-fluorophenyl)-7-methoxy-6-[2-(5-azaspiro[2.4]heptan-7-one)ethoxy]quinazolin-4-amine] | 0.219 | 0.0893 |
| COc1cc2ncnc(Nc3ccc(F)c(Cl)c3)c2cc1OCCCN1CC(OC)C2(CC2)C1 (centres unmarked) [Example 26, N-(3-chloro-4-fluorophenyl)-7-methoxy-6-[3-(7-methoxy-5-azaspiro[2.4]heptane)propoxy]quinazolin-4-amine] | 0.0376 | 0.091 |
| COc1cc2ncnc(Nc3ccc(F)c(Cl)c3)c2cc1OCCN1CC(OC)C2(CC2)C1 (centres unmarked) [Example 27, N-(3-chloro-4-fluorophenyl)-7-methoxy-6-[2-(7-methoxy-5-azaspiro[2.4]heptane)ethoxy]quinazolin-4-amine] | 0.0978 | 0.212 |
| C#Cc1cccc(Nc2ncnc3cc(OC)c(OCCN4CC5(CC5)C5(C4)OCCO5)cc23)c1 [Example 28, N-(3-ethynylphenyl)-7-methoxy-6-[2-(5,8-Dioxa-10-azadispiro[2.0.4.3]undecane)ethoxy]quinazolin-4-amine] | 0.0376 | 0.096 |
| COc1cc2ncnc(Nc3cccc(C(F)(F)F)c3)c2cc1OCCN1CC2(CC2)C2(C1)OCCO2 [Example 31, N-(3-trifluoromethylphenyl)-7-methoxy-6-[2-(5,8-Dioxa-10-azadispiro[2.0.4.3]undecane)ethoxy]quinazolin-4-amine] | 0.098 | 0.0546 |
| COc1cc2ncnc(Nc3ccc(F)c(Cl)c3)c2cc1OCCCN1CC2(CC2)C2(C1)OCCS2 (centres unmarked) [Example 34, N-(3-chloro-4-fluorophenyl)-7-methoxy-6-[3-(5,8-Oxathiolane-10-azadispiro[2.0.4.3]undecane)propoxy]quinazolin-4-amine] | 0.171 | 0.034 |
| COc1cc2ncnc(Nc3ccc(F)c(Cl)c3)c2cc1OCCN1CC2(CC2)C2(C1)OCCS2 (centres unmarked) [Example 37, N-(3-chloro-4-fluorophenyl)-7-methoxy-6-[2-(5,8-Oxathiolane-10-azadispiro[2.0.4.3]undecane)ethoxy]quinazolin-4-amine] | 0.0553 | 0.132 |
| COc1cc2ncnc(Nc3ccc(F)c(Cl)c3)c2cc1OCCN1CC2(CC2)C2(C1)OCCCO2 [Example 38, N-(3-chloro-4-fluorophenyl)-7-methoxy-6-[2-(5,9-Dioxa-11-azadispiro[2.0.4.3]dodecane)ethoxy]quinazolin-4-amine] | 0.143 | 0.073 |
| COc1cc2ncnc(Nc3ccc(F)c(Cl)c3)c2cc1OCCCN1CC2(CC2)C2(C1)OCC(C)(C)CO2 [Example 41, N-(3-chloro-4-fluorophenyl)-7-methoxy-6-[3-(5,9-Dioxa-7,7-dimethyl-11-azadispiro[2.0.4.3]dodecane)propoxy]quinazolin-4-amine] | 0.129 | 0.075 |
| N-(3-chloro-4-fluorophenyl)-7-methoxy-6-[3-(5,9-Dioxa-11-azadispiro[2.0.4.3]dodecane)propoxy]quinazolin-4-amine [Example 40] | 0.029 | 0.042 |

The next lines start with the values.

| IC50 [1] [nM] | IC50 [2] [nM] | Compound |
| --- | --- | --- |
| 0.139 | 0.0421 | COc1cc2ncnc(Nc3ccc(F)c(Cl)c3)c2cc1OCCN1CC2(CC2)C2(C1)OCCO2 [Example 21, N-(3-chloro-4-fluorophenyl)-7-methoxy-6-[2-(5,8-Dioxa-10-azadispiro[2.0.4.3]undecane)ethoxy]quinazolin-4-amine] |
| 0.165 | 0.0375 | COc1cc2ncnc(Nc3ccc(F)c(Cl)c3)c2cc1OCCCN1CC(O)C2(CC2)C1 (centres unmarked) [Example 24, N-(3-chloro-4-fluorophenyl)-7-methoxy-6-[3-(5-azaspiro[2.4]heptan-7-ol)propoxy]quinazolin-4-amine] |
| 0.0954 | 0.0573 | COc1cc2ncnc(Nc3ccc(F)c(Cl)c3)c2cc1OCCN1CC(O)C2(CC2)C1 (centres unmarked) [Example 25, N-(3-chloro-4-fluorophenyl)-7-methoxy-6-[2-(5-azaspiro[2.4]heptan-7-ol)ethoxy]quinazolin-4-amine] |
| 0.0934 | 0.104 | C#Cc1cccc(Nc2ncnc3cc(OC)c(OCCN4CC(=O)C5(CC5)C4)cc23)c1 [Example 29, N-(3-ethynylphenyl)-7-methoxy-6-[2-(5-azaspiro[2.4]heptan-7-one)ethoxy]quinazolin-4-amine] |
| 0.0272 | 0.0749 | C#Cc1cccc(Nc2ncnc3cc(OC)c(OCCN4CC(O)C5(CC5)C4)cc23)c1 (centres unmarked) [Example 30, N-(3-ethynylphenyl)-7-methoxy-6-[2-(5-azaspiro[2.4]heptan-7-ol)ethoxy]quinazolin-4-amine] |
| 0.032 | 0.028 | COc1cc2ncnc(Nc3cccc(Br)c3)c2cc1OCCN1CC2(CC2)C2(C1)OCCO2 [Example 32, N-(3-bromophenyl)-7-methoxy-6-[2-(5,8-Dioxa-10-azadispiro[2.0.4.3]undecane)ethoxy]quinazolin-4-amine] |
| 0.118 | 0.0519 | COc1cc2ncnc(Nc3ccc(Cl)c(Cl)c3)c2cc1OCCN1CC2(CC2)C2(C1)OCCO2 [Example 33, N-(3,4-dichlorophenyl)-7-methoxy-6-[2-(5,8-Dioxa-10-azadispiro[2.0.4.3]undecane)ethoxy]quinazolin-4-amine] |
| 0.0318 | 0.0402 | COc1cc2c(Nc3ccc(Br)cc3F)ncnc2cc1OCCCN1CC2(CC2)C2(C1)OCCO2 [Example 35, N-(2-fluoro-4-bromophenyl)-6-methoxy-7-[3-(5,8-Dioxa-10-azadispiro[2.0.4.3]undecane)propoxy]quinazolin-4-amine] |
| 0.057 | 0.022 | COc1cc2c(Nc3ccc(Br)cc3F)ncnc2cc1OCCN1CC2(CC2)C2(C1)OCCO2 [Example 36, N-(2-fluoro-4-bromophenyl)-6-methoxy-7-[2-(5,8-Dioxa-10-azadispiro[2.0.4.3]undecane)ethoxy]quinazolin-4-amine] |
| 0.03 | 0.023 | COc1cc2ncnc(Nc3ccc(F)c(Cl)c3)c2cc1OCCN1CC2(CC2)C2(C1)OCC(C)(C)CO2 [Example 39, N-(3-chloro-4-fluorophenyl)-7-methoxy-6-[2-(5,9-Dioxa-7,7-dimethyl-11-azadispiro[2.0.4.3]dodecane)ethoxy]quinazolin-4-amine] |
